{"source": "ChEMBL document CHEMBL5528025", "about": "“Design, synthesis and biological evaluation of carbamate derivatives incorporating multifunctional carrier scaffolds as pseudo-irreversible cholinesterase inhibitors for the treatment of Alzheimer's disease” (Eur J Med Chem, 2024)", "key": {"[1]": {"assay": "Hepatotoxicity in IG dosed ICR mouse measured after 48 hrs", "format": "toxicity, organism-based", "conditions": "in vivo, po"}, "Acetylcholinesterase [2]": {"target": "T1, Acetylcholinesterase (Homo sapiens, UniProt P22303)", "T1 sequence (P22303 whole entry)": "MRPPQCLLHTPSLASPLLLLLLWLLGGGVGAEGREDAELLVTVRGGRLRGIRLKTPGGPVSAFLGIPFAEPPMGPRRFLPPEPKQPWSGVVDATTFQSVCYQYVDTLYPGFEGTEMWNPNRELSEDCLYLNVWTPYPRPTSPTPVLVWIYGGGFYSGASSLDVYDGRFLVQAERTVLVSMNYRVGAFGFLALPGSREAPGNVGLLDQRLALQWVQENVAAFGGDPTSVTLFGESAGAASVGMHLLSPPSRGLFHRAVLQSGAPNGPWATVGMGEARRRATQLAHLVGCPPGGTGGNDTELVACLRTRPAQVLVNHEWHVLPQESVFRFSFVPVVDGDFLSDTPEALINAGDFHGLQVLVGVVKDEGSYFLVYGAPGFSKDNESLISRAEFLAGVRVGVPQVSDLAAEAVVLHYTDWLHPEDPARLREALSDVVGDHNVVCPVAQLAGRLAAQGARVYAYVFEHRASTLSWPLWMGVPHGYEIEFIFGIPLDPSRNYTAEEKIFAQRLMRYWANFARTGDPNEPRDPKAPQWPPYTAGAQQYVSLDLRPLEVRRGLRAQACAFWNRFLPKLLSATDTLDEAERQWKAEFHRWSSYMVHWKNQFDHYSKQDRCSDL", "description": "Inhibition of human erythrocyte AChE incubated for 10 mins"}, "Mus musculus [3]": {"test_system": "Mus musculus", "assay": "Antialzheimer activity in amyloid beta (1 to 42 residues) induced ICR mouse model assessed as reduction in learning deficits by measuring reduction in path search distance at 5 to 20 mg/kg, ip administered daily and measured on day 4 by morris water maze test", "format": "functional, organism-based", "conditions": "dose 5-20 mg/kg, time 4.0 day"}, "[4]": {"assay": "Acute toxicity in ICR mouse assessed as histopathological change in heart at 100 to 500 mg/kg, ip measured after 14 days by H and E staining based analysis", "format": "organism-based", "conditions": "in vivo, 336 h, dose 100-500 mg/kg, time 14 day"}, "PC-12 [5]": {"test_system": "PC-12", "assay": "Inhibition of H2O2 induced ROS production in rat PC-12 cells assessed as reduction in intracellular ROS level at 10 uM pretreated for 1 hr followed by H2O2 stimulation and measured after 24 hrs by confocal microscopic analysis", "format": "functional, cell-based", "conditions": "time 25.0 hrs"}, "[6]": {"assay": "Acute toxicity in ICR mouse assessed as histopathological change in spleen at 100 to 500 mg/kg, ip measured after 14 days by H and E staining based analysis", "format": "organism-based", "conditions": "in vivo, 336 h, dose 100-500 mg/kg, time 14 day"}, "Mus musculus [7]": {"test_system": "Mus musculus", "assay": "Antialzheimer activity in amyloid beta (1 to 42 residues) induced ICR mouse model assessed as reduction in learning deficits by measuring increase in duration of time spent within target quadrant at 5 to 20 mg/kg, ip administered daily and measured after 13 to 17 days by morris water maze test", "format": "functional, organism-based", "conditions": "dose 5-20 mg/kg, time 13-17 day"}, "PC-12 [8]": {"test_system": "PC-12", "assay": "Neuroprotective activity against H2O2-induced rat PC-12 cells assessed as protection against H2O2-induced apoptosis by measuring late apoptotic cells at 10 uM pretreated for 1 hr followed by H2O2 addition and measured after 24 hrs by Annexin V-FITC/PI staining based flow cytometry analysis (reference value: 7.97%)", "format": "functional", "conditions": "time 25 hrs"}, "Mus musculus [9]": {"test_system": "Mus musculus", "assay": "Antialzheimer activity in amyloid beta (1 to 42 residues) induced ICR mouse model assessed as reduction in learning deficits by measuring increase in distance traveled within target quadrant at 5 to 20 mg/kg, ip administered daily and measured after 13 to 17 days by morris water maze test", "format": "functional, organism-based", "conditions": "dose 5-20 mg/kg, time 13-17 day"}, "[10]": {"assay": "Acute toxicity in ICR mouse assessed as histopathological change in liver at 100 to 500 mg/kg, ip measured after 14 days by H and E staining based analysis", "format": "organism-based", "conditions": "in vivo, 336 h, dose 100-500 mg/kg, time 14 day"}, "Mus musculus [11]": {"test_system": "Mus musculus", "assay": "Antialzheimer activity in amyloid beta (1 to 42 residues) induced ICR mouse model assessed as reduction in learning deficits by measuring increase in trajectory within target quadrant at 5 to 20 mg/kg, ip administered daily and measured after 13 to 17 days by morris water maze test", "format": "functional, organism-based", "conditions": "dose 5-20 mg/kg, time 13-17 day"}, "Mus musculus [12]": {"test_system": "Mus musculus", "assay": "In vivo inhibition of AChE in scopolamine treated ICR mouse assessed as reduction in AChE level in brain at 5 to 20 mg/kg, ip preadministered with scopolamine for 7 days followed by compound administration and measured after 7 days", "format": "functional, organism-based", "conditions": "dose 5-20 mg/kg, time 7.0 day"}, "Acetylcholinesterase [13]": {"target": "T1, Acetylcholinesterase", "assay": "Pseudo-irreversible inhibition of human erythrocyte AChE at 4 times IC50 preincubated for 20 mins followed by dialysis and measured after 12 hrs", "format": "cell-based"}, "BV-2 [14]": {"test_system": "BV-2", "assay": "Antineuroinflammatory activity in LPS-induced mouse BV-2 cells assessed as increase in IL-4 level at 1.25 to 5 uM incubated for 24 hrs by ELISA", "format": "functional, cell-based", "conditions": "dose 1.25-5 µM"}, "Cholinesterase [15]": {"target": "T2, Cholinesterase (Homo sapiens, UniProt P06276)", "T2 sequence (P06276 whole entry)": "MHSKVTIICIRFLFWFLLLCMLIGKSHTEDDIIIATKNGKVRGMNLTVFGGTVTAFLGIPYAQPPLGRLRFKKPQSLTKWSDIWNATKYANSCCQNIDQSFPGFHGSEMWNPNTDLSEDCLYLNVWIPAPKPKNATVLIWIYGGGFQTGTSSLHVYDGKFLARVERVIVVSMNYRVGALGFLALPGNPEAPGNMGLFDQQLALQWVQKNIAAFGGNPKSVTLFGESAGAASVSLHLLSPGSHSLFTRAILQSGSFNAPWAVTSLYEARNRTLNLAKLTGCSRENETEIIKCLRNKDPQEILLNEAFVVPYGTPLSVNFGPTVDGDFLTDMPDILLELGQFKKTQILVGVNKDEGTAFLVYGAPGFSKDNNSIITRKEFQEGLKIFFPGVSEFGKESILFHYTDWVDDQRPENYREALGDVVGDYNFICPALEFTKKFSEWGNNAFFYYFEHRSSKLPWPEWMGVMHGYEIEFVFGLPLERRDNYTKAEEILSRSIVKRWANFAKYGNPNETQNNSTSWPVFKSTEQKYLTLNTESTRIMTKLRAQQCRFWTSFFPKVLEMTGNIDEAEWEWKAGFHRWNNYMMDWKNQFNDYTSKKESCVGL", "description": "Inhibition of human serum BuChE using butyrylthiocholine iodide as substrate incubated for 10 mins followed by substrate addition and measured after 10 mins by DTNB reagent based Ellman's method"}, "Mus musculus [16]": {"test_system": "Mus musculus", "assay": "Antialzheimer activity in amyloid beta (1 to 42 residues) induced ICR mouse model assessed as increase in step through latency at 5 to 20 mg/kg, ip administered daily and measured on day 18 and 19 by passive avoidance test", "format": "functional, organism-based", "conditions": "dose 5-20 mg/kg, time 18-19 day"}, "PC-12 [17]": {"test_system": "PC-12", "assay": "Neuroprotective activity against H2O2-induced rat PC-12 cells assessed as protection against H2O2-induced apoptosis by measuring live cells at 10 uM pretreated for 1 hr followed by H2O2 addition and measured after 24 hrs by Annexin V-FITC/PI staining based flow cytometry analysis (reference value: 63.2%)", "format": "functional", "conditions": "time 25 hrs"}, "[18]": {"assay": "Acute toxicity in ICR mouse assessed as abnormal dietary patterns at 100 to 500 mg/kg, ip measured after 14 days", "format": "organism-based", "conditions": "in vivo, 336 h, dose 100-500 mg/kg, time 14 day"}, "Cholinesterase [19]": {"target": "T2, Cholinesterase", "assay": "Pseudo-irreversible inhibition of human serum BuChE using butyrylthiocholine iodide as substrate at 4 times IC50 preincubated for 20 mins followed by dialysis and measured after 12 hrs by DTNB reagent based Ellman's method"}, "Mus musculus [20]": {"test_system": "Mus musculus", "assay": "Antialzheimer activity in amyloid beta (1 to 42 residues) induced ICR mouse model assessed as reduction in nerve damage by measuring increase in live neurons in hippocampal CA1 region at 5 to 20 mg/kg, ip administered daily by nissl staining based fluorescence microscopy", "format": "functional, organism-based", "conditions": "dose 5-20 mg/kg"}, "Mus musculus [21]": {"test_system": "Mus musculus", "assay": "In vivo inhibition of BuChE in scopolamine treated ICR mouse assessed as reduction in BuChE level in brain at 20 mg/kg, ip preadministered with scopolamine for 7 days followed by compound administration and measured after 7 days", "format": "functional, organism-based", "conditions": "time 7.0 day"}, "[22]": {"assay": "Cytotoxicity against rat PC-12 cells assessed as cell viability at 10 uM incubated for 24 hrs by CCK-8 assay relative to control", "format": "toxicity, cell-based", "conditions": "read-out: Activity"}, "[23]": {"assay": "Acute toxicity in ICR mouse assessed as histopathological change in brain at 100 to 500 mg/kg, ip measured after 14 days by H and E staining based analysis", "format": "organism-based", "conditions": "in vivo, 336 h, dose 100-500 mg/kg, time 14 day"}, "Mus musculus [24]": {"test_system": "Mus musculus", "assay": "Antialzheimer activity in ip dosed amyloid beta (1 to 42 residues) induced ICR mouse model assessed as reduction in learning deficits by measuring increase in alternation performance administered daily and measured on day 12 by Y-maze test", "format": "functional, organism-based", "conditions": "dose 5-20 mg/kg, time 12.0 day"}, "[25]": {"assay": "Acute toxicity in ICR mouse assessed as aberrant behavior at 100 to 500 mg/kg, ip measured after 14 days", "format": "organism-based", "conditions": "in vivo, 336 h, dose 100-500 mg/kg, time 14 day"}, "BV-2 [26]": {"test_system": "BV-2", "assay": "Cytotoxicity against mouse BV-2 cells assessed as reduction in cell viability at 5 uM incubated for 24 hrs by CCK-8 assay", "format": "toxicity, cell-based", "conditions": "bv-2, 24 h"}, "Mus musculus [27]": {"test_system": "Mus musculus", "assay": "Antialzheimer activity in amyloid beta (1 to 42 residues) induced ICR mouse model assessed as reduction in nerve damage by measuring increase in live neurons in hippocampal CA3 region at 20 mg/kg, ip administered daily by nissl staining based fluorescence microscopy", "format": "functional, organism-based"}, "[28]": {"assay": "Acute toxicity in ICR mouse assessed as reduction in body weight at 100 to 500 mg/kg, ip measured after 2 days", "format": "organism-based", "conditions": "in vivo, 48 h, dose 100-500 mg/kg, time 2 day"}, "Mus musculus [29]": {"test_system": "Mus musculus", "assay": "Antialzheimer activity in amyloid beta (1 to 42 residues) induced ICR mouse model assessed as reduction in learning deficits by measuring reduction in latency at 5 to 20 mg/kg, ip administered daily and measured for 3 days by morris water maze test", "format": "functional, organism-based", "conditions": "dose 5-20 mg/kg, time 3.0 day"}}, "note": "Calls of active or inactive are those of the source. The rule behind the calls is not given here.", "data": [{"smiles": "O=C(NCCCCCCNc1c2c(nc3cc(F)ccc13)CCCC2)Oc1ccc(-c2cc3cccnc3[nH]2)cc1", "values": [{"measurement": "LD50 at 48 h", "setting": "[1]", "value": "> 500", "unit": "mg/kg"}, {"measurement": "IC50", "setting": "Acetylcholinesterase [2]", "value": 30.4, "unit": "nM"}, {"measurement": "Activity", "setting": "Mus musculus [3]", "value": "Active"}, {"measurement": "Activity", "setting": "[4]", "value": "Non-Toxic"}, {"measurement": "inhibition", "setting": "PC-12 [5]", "value": "Active"}, {"measurement": "Activity", "setting": "[6]", "value": "Non-Toxic"}, {"measurement": "Activity", "setting": "Mus musculus [7]", "value": "Active"}, {"measurement": "Activity", "setting": "PC-12 [8]", "value": 5.8, "unit": "%"}, {"measurement": "Activity", "setting": "Mus musculus [9]", "value": "Active"}, {"measurement": "Activity", "setting": "[10]", "value": "Non-Toxic"}, {"measurement": "Activity", "setting": "Mus musculus [11]", "value": "Active"}, {"measurement": "inhibition", "setting": "Mus musculus [12]", "value": "Active"}, {"measurement": "inhibition", "setting": "Acetylcholinesterase [13]", "value": "Active"}, {"measurement": "Activity", "setting": "BV-2 [14]", "value": "Active"}, {"measurement": "IC50", "setting": "Cholinesterase [15]", "value": 48, "unit": "nM"}, {"measurement": "Activity", "setting": "Mus musculus [16]", "value": "Active"}, {"measurement": "Activity", "setting": "PC-12 [17]", "value": 81.3, "unit": "%"}, {"measurement": "Activity", "setting": "[18]", "value": "Non-Toxic"}, {"measurement": "inhibition", "setting": "Cholinesterase [19]", "value": "Active"}, {"measurement": "Activity", "setting": "Mus musculus [20]", "value": "Active"}, {"measurement": "inhibition", "setting": "Mus musculus [21]", "value": "Active"}, {"measurement": "viability at 24 h, 10 µM", "setting": "[22]", "value": "> 90", "unit": "%"}, {"measurement": "Activity", "setting": "[23]", "value": "Non-Toxic"}, {"measurement": "Activity", "setting": "Mus musculus [24]", "value": "Dose-Dependent Effect"}, {"measurement": "Activity", "setting": "[25]", "value": "Non-Toxic"}, {"measurement": "Activity", "setting": "BV-2 [26]", "value": "Non-Toxic"}, {"measurement": "Activity", "setting": "Mus musculus [27]", "value": "Active"}, {"measurement": "Activity", "setting": "[28]", "value": "Toxic"}, {"measurement": "Activity", "setting": "Mus musculus [29]", "value": "Active"}]}]}
